From patent US11459339B2, “Biaryl derivative, preparation method thereof and pharmaceutical application thereof” (Abbisko Therapeutics Co., Ltd., priority 2018, dated 2022) come the findings set out here.

What is called IC50 is the concentration at which inhibition is half-maximal. One may read the EC50 as the concentration that produces a half-maximal response.

A value given as a limit tells only on which side of the number the result lay.

Assay [1] addresses interaction between PD-1 and PD-L1 (Homo sapiens (Human), UniProt Q9NZQ7). Kind of assay: PD1-PDL1 HTRF binding activity test (Cisbio PD-1/PD-L1 binding assay kit). To be noted: read-out: PD1-PDL1 HTRF Binding Activity IC50. How it is done: A. PD1-PDL1 HTRF Binding Activity Test
The effect of compounds and positive compounds of the examples of the present invention on the interaction between PD-1 and PD-L1 was determined by the PD-1/PD-L1 binding assay kit from Cisbio (#64ICP01PEG or 64ICP01PEH). The detailed experimental process was as follows:
1. Pre-diluted compound solution, 4 μL of Tag1-PD-L1 and 4 μL of Tag2-PD1 were added to each well of a 384-well plate;
3. After incubated for 2 hrs at room temperature or overnight at 4° C., plates were read on Envision of Pelkin Elmer; and readings at 665 nm and 620 nm were recorded, and the ratio of the two readings was taken as a reading for each well;
4. The reading of each well after compound treatment was compared with the reading of DMSO treated wells to obtain the percent inhibition of the compound; and
5. IC50 values of compounds and positive compounds of the examples of the present invention were determined by non-linear regression analysis of percent inhibition at different compound concentrations.
For orientation: Time-resolved FRET reads energy transfer from a long-lived donor to a nearby acceptor.

The target of assay [2] is interaction between PD-1 and PD-L1 expressed on cell surfaces (Homo sapiens (Human), UniProt Q9NZQ7). Kind of assay: Jurkat reporter gene cellular assay (Jurkat/NF-κB-luc/PD1 cells cocultured with Raji-PD-L1 cells, OKT-3 stimulation). It counts as cell-based. To be noted: NF-κB-luc reporter activation fold, 6 hrs; read-out: Cell Activity EC50. How it is done:
B. Jurkat Reporter Gene Cellular Assay
The effect of compounds of the examples of the present invention and positive compounds on the interaction between PD-1 and PD-L1 expressed on cell surfaces, and the related influence on T cell functions, were determined by a Jurkat reporter gene cellular assay.
Briefly, the reporter gene plasmid of NF-κB-luc and the plasmid of human PD-1 were transfected into Jurkat cells to establish a stably transfected cell line capable of stably expressing both PD-1 and NF-κB-Luc reporter genes; the expression level of PD-1 on the cell surface was confirmed by flow cytometry: and the expression of the reporter gene was confirmed via the response of the reporter gene stimulated by OKT-3 and Raiji cells.
In addition, the plasmid of human PD-L1 was transfected into Raji cells to obtain a cell line capable of stably expressing PD-L1. Jurkat/NF-κB-luc/PD1 cells and Raji-PD-L1 cells were then cocultured and stimulated with OKT-3. On this basis, the compounds were added, and the enhancement of the signal pathway of T cell activation by the inhibitory effect of the compounds on the interaction between PD-1 and PD-L1 was evaluated by readings of reporter gene responses. The specific experimental process was as follows:
2. 20 μL of Raji-PD-L1 cell suspension was added to each well with 5*10^4 cells for each well, and was incubated in an incubator for 20 min;
3. 20 μL of Jurkat/NF-κb-luc/PD-1 cell suspension was added to each well with 5*10^4 cells for each well, and well mixed, and 6 hrs later, Bright-glo (Promega, E2620) was applied and plates were read on Envision;
4. the reading of each well treated with the compound was compared with the reading of each well treated with DMSO to obtain the activation fold of the compound; and
5. EC50 values of compounds and positive compounds of the examples of the present invention were determined by non-linear regression analysis of activation folds at different compound concentrations.
(A reporter such as luciferase makes a cellular process visible.)

interaction between PD-1 and PD-L1, sequence (Q9NZQ7 19-238): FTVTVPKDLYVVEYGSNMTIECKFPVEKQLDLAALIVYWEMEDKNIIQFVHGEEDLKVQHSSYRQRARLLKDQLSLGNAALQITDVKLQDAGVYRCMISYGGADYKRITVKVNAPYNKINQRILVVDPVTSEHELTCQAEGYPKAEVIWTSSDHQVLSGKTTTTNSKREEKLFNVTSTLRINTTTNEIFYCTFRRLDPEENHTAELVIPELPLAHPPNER
interaction between PD-1 and PD-L1 expressed on cell surfaces, sequence (Q9NZQ7 19-290): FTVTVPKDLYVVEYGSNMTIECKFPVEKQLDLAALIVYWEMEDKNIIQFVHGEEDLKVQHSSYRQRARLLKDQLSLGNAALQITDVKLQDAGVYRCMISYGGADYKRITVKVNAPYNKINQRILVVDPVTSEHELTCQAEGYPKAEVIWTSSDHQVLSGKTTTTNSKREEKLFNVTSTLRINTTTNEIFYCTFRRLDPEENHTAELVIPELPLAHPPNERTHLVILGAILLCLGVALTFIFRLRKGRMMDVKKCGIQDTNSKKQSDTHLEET

As to `COc1cc(C(=O)Nc2cccc(-c3cccc(NC(=O)c4cc(OC)c(CN[C@H](CO)C(=O)O)cn4)c3C)c2C)ncc1CN[C@H](CO)C(=O)O` [Example 2, (2R,2′R)-2,2′-((((((2,2′-dimethyl-[1,1′-biphenyl]-3,3′-diyl)bis (azanediyl))bis(carbonyl))bis(4-methoxypyridine-6,3-diyl))bis(methylene))bis (azanediyl))bis(3-hydroxypropanoic acid)], the 50% inhibitory concentration (IC50) in assay [1] was determined as 0.18 nM. In assay [2], the concentration for a half-maximal effect (EC50) worked out at 109 nM.
Take `Cc1c(NC(=O)c2ccc(CN[C@H](CO)C(=O)O)cn2)cccc1-c1cccc(NC(=O)c2ccc(CN[C@H](CO)C(=O)O)cn2)c1C` [Example 6, (2R,2′R)-2,2′-((((((2,2′-dimethyl[1,1′-biphenyl]-3,3′-diyl)bis(azanediyl))bis(carbonyl))bis(pyridine-6,3-diyl))bis(methylene))bis(azanediyl))bis (3-hydroxypropanoic acid)]: the half-maximal inhibitory concentration (IC50) in assay [1] stood at 0.79 nM. Further, the half-maximal effective concentration (EC50) in assay [2] worked out at 658 nM.
Take `COCCNCc1cnc(C(=O)Nc2cccc(-c3cccc(NC(=O)c4cc(C)c(CNCCOC)cn4)c3C)c2C)cc1C` [Example 7, N,N′-(2,2′-dimethyl-[1,1′-biphenyl]-3,3′-diyl)bis(5-(((2-methoxyethyl)amino)methyl)-4-methylpicolinamide)]: in assay [1], the IC50 was 0.096 nM. For the same molecule, the EC50 in assay [2] was determined as 139 nM.
With `Cc1cc(C(=O)Nc2cccc(-c3cccc(NC(=O)c4cc(C)c(CN5CCOCC5)cn4)c3C)c2C)ncc1CN1CCOCC1` [Example 9, N,N′-(2,2′-dimethyl-[1,1′-biphenyl]-3,3′-diyl)bis(4-methyl-5-(morpholinomethyl)picolinamide)], the 50% inhibitory concentration (IC50) in assay [1] is 3.8 nM. Further, the EC50 in assay [2] was over 10000 nM.
As to `Cc1cc(C(=O)Nc2cccc(-c3cccc(NC(=O)c4cc(C)c(CNCC5(O)CC5)cn4)c3C)c2C)ncc1CNCC1(O)CC1` [Example 10, N,N′-(2,2′-dimethyl-[1,1′-biphenyl]-3,3′-diyl)bis(5-((((1-hydroxycyclopropyl)methyl)amino)methyl)-4-methylpicolinamide)], the IC50 in assay [1] came out at 0.28 nM. Moreover, the EC50 in assay [2] was 50 nM.
With `Cc1cc(C(=O)Nc2cccc(-c3cccc(NC(=O)c4cc(C)c(CN5CC(C)(O)C5)cn4)c3C)c2C)ncc1CN1CC(C)(O)C1` [Example 11, N,N′-(2,2′-dimethyl-[1,1′-biphenyl]-3,3′-diyl)bis(5-((3-hydroxy-3-methylazetidin-1-yl)methyl)-4-methylpicolinamide)], the IC50 in assay [1] stood at 0.6 nM. Besides, the concentration giving a half-maximal response (EC50) in assay [2] worked out at 134 nM.
On to `Cc1cc(C(=O)Nc2cccc(-c3cccc(NC(=O)c4cc(C)c(CN5CCCC5)cn4)c3C)c2C)ncc1CN1CCCC1` [Example 12, N,N′-(2,2′-dimethyl-[1,1′-biphenyl]-3,3′-diyl)bis(4-methyl-5-(pyrrolidin-1-ylmethyl)picolinamide)], for which, in assay [1], the IC50 was determined as 1.9 nM. Besides, the EC50 in assay [2] turned out to be 594 nM.
In the case of `Cc1cc(C(=O)Nc2cccc(-c3cccc(NC(=O)c4cc(C)c(CN5CC[C@@H](O)C5)cn4)c3C)c2C)ncc1CN1CC[C@@H](O)C1` [Example 13, N,N′-(2,2′-dimethyl-[1,1′-biphenyl]-3,3′-diyl)bis(5-(((R)-3-hydroxypyrrolidin-1-yl)methyl)-4-methylpicolinamide)], the IC50 in assay [1] is 0.13 nM. Also, the EC50 in assay [2] was determined as 109 nM.
As to `Cc1cc(C(=O)Nc2cccc(-c3cccc(NC(=O)c4cc(C)c(CN5CCC(F)(F)C5)cn4)c3C)c2C)ncc1CN1CCC(F)(F)C1` [Example 14, N,N′-(2,2′-dimethyl-[1,1′-biphenyl]-3,3′-diyl)bis(5-((3,3-difluoropyrrolidin-1-yl)methyl)-4-methylpicolinamide)], in assay [1], the half-inhibitory concentration (IC50) is 227 nM.
For the molecule `Cc1cc(C(=O)Nc2cccc(-c3cccc(NC(=O)c4cc(C)c(CNC5CC5)cn4)c3C)c2C)ncc1CNC1CC1` [Example 15, N,N′-(2,2′-dimethyl-[1,1′-biphenyl]-3,3′-diyl)bis(5-((cyclopropylamino)methyl)-4-methyipicolinamide)], the concentration for half-maximal inhibition (IC50) in assay [1] stood at 0.83 nM. The EC50 in assay [2] came out at 511 nM.
On to `CC(=O)NCCNCc1cnc(C(=O)Nc2cccc(-c3cccc(NC(=O)c4cc(C)c(CNCCNC(C)=O)cn4)c3C)c2C)cc1C` [Example 16, N,N′-(2,2′-dimethyl-[1,1′-biphenyl]-3,3′-diyl)bis(5-(((2-acetamidoethyl)amino)methyl)-4-methylpicolinamide)], for which the half-maximal inhibitory concentration (IC50) in assay [1] was 0.14 nM. Moreover, the EC50 in assay [2] was 310 nM.
Regarding `Cc1cc(C(=O)Nc2cccc(-c3cccc(NC(=O)c4cc(C)c(CN5CCNC(=O)C5)cn4)c3C)c2C)ncc1CN1CCNC(=O)C1` [Example 17, N,N′-(2,2′-dimethyl-[1,1′-biphenyl]-3,3′-diyl)bis(4-methyl-5-((3-oxopiperazin-1-yl)methyl)picolinamide)], the concentration for half-maximal inhibition (IC50) in assay [1] is 1.5 nM. The EC50 in assay [2] was over 10000 nM.
Take `Cc1cc(C(=O)Nc2cccc(-c3cccc(NC(=O)c4cc(C)c(CN[C@@H]5CCOC[C@H]5O)cn4)c3C)c2C)ncc1CN[C@@H]1CCOC[C@H]1O` [Example 18, N,N′-(2,2′-dimethyl-[1,1′-biphenyl]-3,3′-diyl)bis(5-((((3S,4R)-3-hydroxytetrahydro-2H-pyran-4-yl)amino)methyl)-4-methylpicolinamide)]: in assay [1], the concentration for half-maximal inhibition (IC50) stood at 0.34 nM. Further, the EC50 in assay [2] stood at 209 nM.
`Cc1cc(C(=O)Nc2cccc(-c3cccc(NC(=O)c4cc(C)c(CN[C@H]5CC[C@H](O)CC5)cn4)c3C)c2C)ncc1CN[C@H]1CC[C@H](O)CC1` [Example 19, N,N′-(2,2′-dimethyl-[1,1′-biphenyl]-3,3′-diyl)bis(5-((((1r,4r)-4-hydroxycyclohexyl)amino)methyl)-4-methylpicolinamide)]: the half-inhibitory concentration (IC50) in assay [1] was 0.15 nM. The concentration for a half-maximal effect (EC50) in assay [2] was 86 nM.
Turning to `COC(=O)[C@@H](CO)NCc1cnc(C(=O)Nc2cccc(-c3cccc(NC(=O)c4cc(C)c(CN[C@H](CO)C(=O)OC)cn4)c3C)c2C)cc1C` [Example 20, dimethyl 2,2′-((((((2,2′-dimethyl-[1,1′-biphenyl]-3,3′-diyl)bis (azanediyl))bis(carbonyl))bis(4-methylpyridine-6,3-diyl))bis(methylene))bis(azanediyl))(2R,2′R)-bis(3-hydroxypropanoate)], in assay [1], the IC50 came out at 0.36 nM. Moreover, in assay [2], the EC50 is 4220 nM.
With `Cc1cc(C(=O)Nc2cccc(-c3cccc(NC(=O)c4cc(C)c(CN[C@H](CO)C(=O)O)cn4)c3C)c2C)ncc1CN[C@H](CO)C(=O)O` [Example 21, (2R,2′R)-2,2′-((((((2,2′-dimethyl-[1,1′-biphenyl]-3,3′-diyl)bis(azanediyl))bis(carbonyl))bis(4-methylpyridine-6,3-diyl))bis(methylene))bis(azanediyl)) bis(3-hydroxypropaitoic acid)], in assay [1], the IC50 is 0.66 nM. Besides, the EC50 in assay [2] came to 83 nM.
On to `COC(=O)[C@H](CO)NCc1cnc(C(=O)Nc2cccc(-c3cccc(NC(=O)c4cc(C)c(CN[C@@H](CO)C(=O)OC)cn4)c3C)c2C)cc1C` [Example 22, dimethyl 2,2′-((((((2,2′-dimethyl-[1,1′-biphenyl]-3,3′-diyl)bis(azanediyl))bis(carbonyl))bis(4-methylpyridine-6,3-diyl))bis(methylene))bis(azanediyl)) (2S,2′S)-bis(3-hydroxypropanoate)], for which, in assay [1], the IC50 is 0.28 nM. In addition, in assay [2], the EC50 came out at 5170 nM.
For `Cc1cc(C(=O)Nc2cccc(-c3cccc(NC(=O)c4cc(C)c(CN[C@@H](CO)C(=O)O)cn4)c3C)c2C)ncc1CN[C@@H](CO)C(=O)O` [Example 23, (2S,2′S)-2,2′-((((((2,2′-dimethyl-[1,1′-biphenyl]3,3′-diyl)bis(azanediyl))bis(carbonyl))bis(4-methylpyridine-6,3-diyl))bis(methylene))bis(azanediyl))bis (3-hydroxypropanoic acid)], in assay [1], the half-maximal inhibitory concentration (IC50) turned out to be 0.31 nM. Further, the EC50 in assay [2] was 249 nM.
For `COc1cc(C(=O)Nc2cccc(-c3cccc(NC(=O)c4cc(OC)c(CN5CC6(CCO6)C5)cn4)c3C)c2C)ncc1CN1CC2(CCO2)C1` [Example 57], the IC50 in assay [1] worked out at 0.36 nM.
